Measurements taken from ChEMBL document CHEMBL6121044, “Discovery of Novel Spirocyclic MAT2A Inhibitors Demonstrating High In Vivo Efficacy in MTAP-Null Xenograft Models” (J Med Chem, 2025).

Experiments:
HCT-116 [1] = assay: Antiproliferative activity against wild type human HCT-116 cells measured after 5 days by CTG assay; assay type: functional, cell-based; settings: HCT-116, 120 h
HCT-116 [2] = assay: Antiproliferative activity against MTAP-knock out human HCT-116 cells assessed as proliferation inhibition rate measured after 5 days by CTG assay; assay type: functional, cell-based; settings: HCT-116, 120 h
[3] = Microsomal metabolic stability in human liver microsomes assessed as clearance; assay type: ADME, Microsome; settings: read-out: CLH
[4] = Clearance in male ICR mouse at 10 mg/kg, po and 2 mg/kg, iv measured upto 24 hrs; assay type: ADME, organism-based; settings: in vivo
[5] = Volume of distribution at steady state in male ICR mouse at 10 mg/kg, po and 2 mg/kg, iv measured upto 24 hrs; assay type: ADME, organism-based; settings: in vivo
[6] = AUC (0 to infinity) in male ICR mouse at 10 mg/kg, po and 2 mg/kg, iv measured upto 24 hrs; assay type: ADME, organism-based; settings: in vivo
[7] = Lipophilicity, log D of compound at pH 7.4 byHPLC method; assay type: physicochemical; settings: buffer
[8] = target: T1, S-adenosylmethionine synthase isoform type-2 (Homo sapiens, UniProt P31153); assay: Inhibition of MAT2A in MTAP-knock out human HCT-116 cells assessed as inhibition of PRMT5-mediated symmetric […]-arginine (SDMA) level; assay type: cell-based
[9] = target: T1, S-adenosylmethionine synthase isoform type-2; assay: Inhibition of MAT2A in wild type human HCT-116 cells assessed as inhibition of S-adenosylmethionine; assay type: cell-based
[10] = Selectivity index, ratio of IC50 for antiproliferative activity against wild type human HCT-116 cells to IC50 for antiproliferative activity against MTAP-knock out human HCT-116 cells
[11] = AUCinf in beagle dog at 2 mg/kg, iv measured upto 24 hrs upto 24 hrs by LC-MS/MS analysis; assay type: ADME, organism-based, Canis lupus familiaris; settings: in vivo
[12] = AUCinf in male Sprague-Dawley rat at 10 mg/kg, po measured upto 24 hrs upto 24 hrs by LC-MS/MS analysis; assay type: ADME, organism-based; settings: in vivo
[13] = Clearance rate in beagle dog at 2 mg/kg, iv measured upto 24 hrs upto 24 hrs by LC-MS/MS analysis; assay type: ADME, organism-based, Canis lupus familiaris; settings: in vivo
[14] = Half life in male ICR mouse at 2 mg/kg, iv measured upto 24 hrs by LC-MS/MS analysis; assay type: ADME, organism-based; settings: in vivo
[15] = Half life in male Sprague-Dawley rat at 10 mg/kg, po measured upto 24 hrs upto 24 hrs by LC-MS/MS analysis; assay type: ADME, organism-based; settings: in vivo
[16] = Half life in beagle dog at 10 mg/kg, po measured upto 24 hrs upto 24 hrs by LC-MS/MS analysis; assay type: ADME, organism-based, Canis lupus familiaris; settings: in vivo
[17] = Volume of distribution at steady state in beagle dog at 2 mg/kg, iv measured upto 24 hrs upto 24 hrs by LC-MS/MS analysis; assay type: ADME, organism-based, Canis lupus familiaris; settings: in vivo, read-out: Vdss
[18] = Cmax in male ICR mouse at 10 mg/kg, po measured upto 24 hrs by LC-MS/MS analysis; assay type: ADME, organism-based; settings: in vivo
[19] = Oral bioavailability in beagle dog at 10 mg/kg measured upto 24 hrs upto 24 hrs by LC-MS/MS analysis; assay type: ADME, organism-based, Canis lupus familiaris; settings: in vivo
[20] = Plasma protein binding in human assessed as unbound fraction; assay type: ADME, cell-free
[21] = Plasma protein binding in dog assessed as unbound fraction; assay type: ADME, cell-free, Canis lupus familiaris
[22] = Plasma protein binding in rat assessed as unbound fraction; assay type: ADME, cell-free
[23] = Microsomal metabolic stability in Cynomolgus monkey liver microsomes assessed as half life; assay type: ADME, Macaca fascicularis, Microsome
[24] = Microsomal metabolic stability in dog liver microsomes assessed as half life; assay type: ADME, Canis lupus familiaris, Microsome
[25] = Hepatic metabolic stability in human hepatocyte assessed as half life; assay type: ADME, cell-based; settings: hepatocytes
[26] = Hepatic metabolic stability in Cynomolgus monkey hepatocyte assessed as half life; assay type: ADME, cell-based, Macaca fascicularis; settings: hepatocytes
[27] = Hepatic metabolic stability in dog hepatocyte assessed as half life; assay type: ADME, cell-based, Canis lupus familiaris; settings: hepatocytes
[28] = Hepatic metabolic stability in rat hepatocyte assessed as half life; assay type: ADME, cell-based; settings: hepatocytes
[29] = Dissociation constant, pKa of compound; assay type: physicochemical
[30] = Lipophilicity, log P of the compound; assay type: physicochemical; settings: octanol/water
[31] = Efflux ratio of apparent permeability in human Caco-2 cells; assay type: ADME, cell-based
Cytochrome P450 2B6 = target: T2, Cytochrome P450 2B6 (Homo sapiens, UniProt P20813); assay: Inhibition of CYP2B6 (unknown origin); assay type: ADME
T2 sequence (P20813 whole entry): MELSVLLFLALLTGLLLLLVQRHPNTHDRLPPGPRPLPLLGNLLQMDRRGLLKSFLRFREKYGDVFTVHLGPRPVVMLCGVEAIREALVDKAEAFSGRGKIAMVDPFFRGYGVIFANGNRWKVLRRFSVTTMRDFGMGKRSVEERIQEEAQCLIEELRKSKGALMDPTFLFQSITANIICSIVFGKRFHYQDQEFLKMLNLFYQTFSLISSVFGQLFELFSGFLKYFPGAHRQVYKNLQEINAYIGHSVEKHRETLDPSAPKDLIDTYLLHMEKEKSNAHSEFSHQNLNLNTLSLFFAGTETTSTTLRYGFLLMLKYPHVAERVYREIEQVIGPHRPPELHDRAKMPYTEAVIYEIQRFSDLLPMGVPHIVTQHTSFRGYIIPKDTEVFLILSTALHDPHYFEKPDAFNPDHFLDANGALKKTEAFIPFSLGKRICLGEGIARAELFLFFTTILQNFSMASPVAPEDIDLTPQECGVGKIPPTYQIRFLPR

Cytochrome P450 2D6 = Cytochrome P450 2D6 (Homo sapiens, UniProt P10635); assay: Inhibition of CYP2D6 (unknown origin); assay type: ADME
[32] = target: Voltage-gated inwardly rectifying potassium channel KCNH2 (Homo sapiens, UniProt Q12809); assay: Inhibition of hERG; assay type: toxicity
[33] = target: T3, UDP-glucuronosyltransferase 1A1 (Homo sapiens, UniProt P22309); assay: Inhibition of UGT1A1 (unknown origin)
T3 sequence (P22309 whole entry): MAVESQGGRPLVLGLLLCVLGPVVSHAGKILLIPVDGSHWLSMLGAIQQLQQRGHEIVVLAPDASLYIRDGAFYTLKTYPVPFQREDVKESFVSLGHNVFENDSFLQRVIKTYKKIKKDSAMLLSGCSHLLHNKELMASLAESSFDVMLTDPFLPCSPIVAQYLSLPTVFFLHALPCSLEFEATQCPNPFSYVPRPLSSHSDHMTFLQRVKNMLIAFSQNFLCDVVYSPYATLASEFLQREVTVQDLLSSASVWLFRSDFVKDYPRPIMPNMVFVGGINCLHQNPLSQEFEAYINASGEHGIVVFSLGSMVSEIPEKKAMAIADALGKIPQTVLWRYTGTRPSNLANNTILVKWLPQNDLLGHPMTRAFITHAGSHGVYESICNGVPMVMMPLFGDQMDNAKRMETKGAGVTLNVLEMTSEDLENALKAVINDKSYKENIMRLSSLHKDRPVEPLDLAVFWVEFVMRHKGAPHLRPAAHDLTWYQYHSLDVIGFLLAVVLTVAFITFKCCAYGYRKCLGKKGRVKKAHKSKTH

[34] = Genotoxicity in Salmonella typhimurium TA97a; assay type: toxicity; settings: salmonella enterica subsp. enterica serovar typhimurium
[35] = Genotoxicity in Salmonella typhimurium TA100; assay type: toxicity; settings: salmonella enterica subsp. enterica serovar typhimurium
[36] = In vivo antitumor activity against MTAP-deleted human KP-4 cells xenografted mouse model assessed as tumor growth inhibition at 30 mg/kg, po qd measured after 18 days relative to control; assay type: functional; settings: KP-4, 432 h, time 18 day, read-out: TGI

T1 sequence (P31153 whole entry, canonical isoform): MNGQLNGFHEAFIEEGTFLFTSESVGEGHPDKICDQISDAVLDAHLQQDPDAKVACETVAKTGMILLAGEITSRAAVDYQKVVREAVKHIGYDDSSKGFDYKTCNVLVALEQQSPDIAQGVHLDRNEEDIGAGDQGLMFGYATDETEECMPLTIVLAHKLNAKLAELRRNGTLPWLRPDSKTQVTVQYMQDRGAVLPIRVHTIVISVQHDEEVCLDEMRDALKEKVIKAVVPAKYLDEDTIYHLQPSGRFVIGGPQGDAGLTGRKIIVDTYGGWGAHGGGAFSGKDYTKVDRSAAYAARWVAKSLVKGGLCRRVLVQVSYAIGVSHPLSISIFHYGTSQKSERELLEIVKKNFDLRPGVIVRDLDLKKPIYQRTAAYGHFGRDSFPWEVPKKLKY
Voltage-gated inwardly rectifying potassium channel KCNH2, sequence (Q12809 whole entry): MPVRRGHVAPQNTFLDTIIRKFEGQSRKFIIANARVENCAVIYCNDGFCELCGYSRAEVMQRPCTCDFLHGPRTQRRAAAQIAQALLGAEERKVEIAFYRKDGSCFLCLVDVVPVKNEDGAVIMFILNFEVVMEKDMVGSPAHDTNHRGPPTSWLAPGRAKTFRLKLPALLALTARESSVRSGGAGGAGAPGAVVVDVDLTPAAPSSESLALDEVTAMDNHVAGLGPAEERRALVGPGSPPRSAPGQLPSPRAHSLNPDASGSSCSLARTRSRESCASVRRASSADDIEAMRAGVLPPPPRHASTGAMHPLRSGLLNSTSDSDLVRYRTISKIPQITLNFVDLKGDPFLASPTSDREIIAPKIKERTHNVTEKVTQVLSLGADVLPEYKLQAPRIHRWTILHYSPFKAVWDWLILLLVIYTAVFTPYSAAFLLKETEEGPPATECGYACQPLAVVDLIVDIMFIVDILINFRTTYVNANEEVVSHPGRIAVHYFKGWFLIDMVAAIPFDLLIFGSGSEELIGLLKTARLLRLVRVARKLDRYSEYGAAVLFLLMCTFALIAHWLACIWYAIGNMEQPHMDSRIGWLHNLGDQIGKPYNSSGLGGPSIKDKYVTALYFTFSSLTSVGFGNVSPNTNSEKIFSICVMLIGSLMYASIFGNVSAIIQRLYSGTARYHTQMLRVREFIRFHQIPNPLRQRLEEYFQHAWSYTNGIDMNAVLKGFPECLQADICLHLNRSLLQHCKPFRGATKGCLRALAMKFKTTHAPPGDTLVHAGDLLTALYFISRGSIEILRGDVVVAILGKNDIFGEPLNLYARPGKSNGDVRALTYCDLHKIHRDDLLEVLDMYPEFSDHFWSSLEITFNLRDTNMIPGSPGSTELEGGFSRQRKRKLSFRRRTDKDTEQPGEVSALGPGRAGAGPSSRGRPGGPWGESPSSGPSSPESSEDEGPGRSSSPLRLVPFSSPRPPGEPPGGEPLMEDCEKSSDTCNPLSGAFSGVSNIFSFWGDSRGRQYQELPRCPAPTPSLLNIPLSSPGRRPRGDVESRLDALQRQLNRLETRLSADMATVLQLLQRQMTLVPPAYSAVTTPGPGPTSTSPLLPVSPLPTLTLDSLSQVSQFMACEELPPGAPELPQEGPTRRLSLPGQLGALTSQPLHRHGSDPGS
Cytochrome P450 2D6, sequence (P10635 whole entry): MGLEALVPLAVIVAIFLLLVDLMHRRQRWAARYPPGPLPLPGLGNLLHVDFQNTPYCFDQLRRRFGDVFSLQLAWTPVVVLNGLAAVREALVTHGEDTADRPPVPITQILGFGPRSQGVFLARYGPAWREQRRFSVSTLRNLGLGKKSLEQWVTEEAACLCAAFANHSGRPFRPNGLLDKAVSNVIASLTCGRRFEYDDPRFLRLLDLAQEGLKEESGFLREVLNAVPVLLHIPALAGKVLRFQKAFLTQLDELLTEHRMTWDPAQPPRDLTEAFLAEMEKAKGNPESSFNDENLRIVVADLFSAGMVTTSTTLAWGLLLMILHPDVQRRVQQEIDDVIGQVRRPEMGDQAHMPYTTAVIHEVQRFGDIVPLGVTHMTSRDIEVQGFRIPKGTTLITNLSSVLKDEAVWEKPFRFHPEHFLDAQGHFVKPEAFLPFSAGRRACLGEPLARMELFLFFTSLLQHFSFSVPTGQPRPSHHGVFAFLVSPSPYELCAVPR

Row | SMILES | IC50 (HCT-116 [1]) [nM] | IC50 (HCT-116 [2]) [nM] | CLint scaled [3] [mL/min/kg] | clearance [4] [mL/min/kg] | Vdss [5] [L/kg] | AUC(0-inf) [6] [ng·h/mL] | logD [7] | IC50 [8] [nM] | IC50 [9] [nM] | Selectivity Index [10] | AUC(0-inf) [11] [ng·h/mL] | AUC(0-inf) [12] [ng·h/mL] | clearance [13] [mL/min/kg] | half-life [14] [h] | half-life [15] [h] | half-life [16] [h] | Vd [17] [L/kg] | Cmax [18] [ng/mL] | fraction unbound [20] | fraction unbound [21] | further results
1 | [2H]C([2H])([2H])NC1=NC(=O)[C@]2(CCc3ncccc32)c2cc(C(C)(F)F)ccc21 | > 10000 | 47 | < 9.3 | 9.12 | 1.53 | 24900 | 1.59 | 2 | 2 | >181 | 1860 | 14500 | 15.3 | 1.94 | 2.35 | 4.47 | 1.14 | 5820 | 0.676 | 0.456 | F ([19]; po, 10 mg/kg, 24 h): 165%; fraction unbound [22]: 0.373; half-life [23]: > 3.1 h; half-life [24]: > 3.1 h; half-life [25]: > 3.61 h; half-life [26]: > 3.61 h; half-life [27]: > 3.61 h; half-life [28]: > 3.61 h; pKa [29]: 4.9; logP [30]: 1.65; efflux ratio [31]: 5.27; IC50 (Cytochrome P450 2B6): > 10000 nM; IC50 (Cytochrome P450 2D6): > 10000 nM; IC50 [32]: > 40000 nM; IC50 [33]: > 50000 nM; Activity [34]: Non-toxic; Activity [35]: Non-toxic; inhibition in vivo at 30 mg/kg [36]: 62%
2 | [2H]C([2H])([2H])NC1=NC(=O)[C@]2(CCc3ncccc32)c2cc(C(F)(F)F)ccc21 | 680 | 58 | < 9.3 | 7.98 | 1.7 | 39600 | 1.81 | 1 | 3 | 20 | 2610 | 24300 | 6.95 | 2.52 | 2.4 | 6.09 | 1.14 | 5420 | 0.758 | 0.497 | bioavailability ([19]; beagle): 130%; fraction unbound [22]: 0.412; half-life [23]: > 3.1 h; half-life [24]: > 3.1 h; half-life [25]: > 3.61 h; half-life [26]: > 3.61 h; half-life [27]: > 3.61 h; half-life [28]: > 3.61 h; pKa [29]: 4.7; logP [30]: 1.85; efflux ratio [31]: 1.95; IC50 (Cytochrome P450 2B6): > 10000 nM; IC50 (Cytochrome P450 2D6): > 10000 nM; IC50 [32]: > 40000 nM; IC50 [33]: > 50000 nM; Activity [34]: Non-toxic; Activity [35]: Non-toxic
